Experimental data taken from patent US20240342291A1, “Therapeutic Coordination Polymers Containing Pharmaceuticals for Drug Release Applications” (UNIVERSITY OF WINDSOR, priority 2021, published 2024).

How the values were obtained:
Type in all cases: physicochemical
[1] = Pharmaceutical loading (relative percentage of diclofenac by mass)
Description: It has been appreciated that the pharmaceutical loading in the TCPs may be less than that of a commercially available pharmaceutical sodium salt due to the mass of the organic linkers. Provided below is Table I showing a summary for the relative percentages in some of specific diclofenac TCPs. For example, the percent of diclofenac in sodium diclofenac is 93%, whereas the TCPs had loading ranging from 42-70%. The percentage of metal within the TCPs by mass ranged from 2.6-7.9% and the percent of linker by mass ranged from 22-41%. The TCP with EtOH in the name were synthesized in EtOH, all others were synthesized in MeOH. However, it is not strictly required that TCPs be prepared in MeOH and TCPs may be prepared in EtOH instead, or other solvents such as but not limited to: water, acetonitrile, dimethyl sulfoxide, nitromethane, isopropyl alcohol, dimethylformamide or a mixture thereof.

[2] = Intrinsic dissolution rate (IDR) in 0.05M phosphate buffer pH 6.8
[3] = Dissolution (drug release) in 0.05 M phosphate buffer pH 6.8

| percent of diclofenac (loading) [1] [%] | intrinsic dissolution rate (IDR) [2] [μg cm^−2 min^−1] | diclofenac released ([3]; after 1 h) [%] | ibuprofen released ([3]; after 5 min) [%] | Structure (SMILES) |
| --- | --- | --- | --- | --- |
| 93 | 1161±0.216 | 100 | – | O=C(O)Cc1ccccc1Nc1c(Cl)cccc1Cl [sodium diclofenac] |
| – | – | – | 100 | CC(C)Cc1ccc(C(C)C(=O)O)cc1.[Na] (stereo not shown) [sodium ibuprofen] |
